Measured values taken from patent US12630536B2, “Cyanotriazine derivative, preparation method therefor, and application thereof” (Chengdu Fanxi Biopharma Co., LTD., priority 2020, dated 2026).

Tests used:
[1] = molecular target: T1, THR-α ligand-binding domain (H6-THR-α) (Homo sapiens, UniProt P10827); experiment: Co-activated peptide recruitment test of THR-α/RXR/GRIP1 (TR_LBD agonist detection, HTRF); assay type: biochemical; conditions: for EC50: Detection of TR_LBD agonist, read-out: TR_α_EC50; for Maximum activity ratio (A520/A495) / Measurement of cpd/T3 (maximum ratio): TR_LBD agonist, TR_α; for Measurement of cpd/T3 (maximum ratio): maximum relative to T3
T1 construct: made in house; host or cells: Escherichia coli BL21 (DE3), vector pET28a
T1 sequence (P10827 148-410 isoform P10827-2 limits assumed): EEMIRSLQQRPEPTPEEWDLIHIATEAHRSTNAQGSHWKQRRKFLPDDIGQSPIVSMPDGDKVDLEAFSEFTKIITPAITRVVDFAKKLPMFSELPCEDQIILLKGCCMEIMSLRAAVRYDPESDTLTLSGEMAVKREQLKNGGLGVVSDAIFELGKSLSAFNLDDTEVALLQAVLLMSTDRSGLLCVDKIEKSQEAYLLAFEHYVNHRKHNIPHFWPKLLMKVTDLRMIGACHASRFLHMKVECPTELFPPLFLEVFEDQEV
T1 sequence (P19793 225-462 partner limits assumed): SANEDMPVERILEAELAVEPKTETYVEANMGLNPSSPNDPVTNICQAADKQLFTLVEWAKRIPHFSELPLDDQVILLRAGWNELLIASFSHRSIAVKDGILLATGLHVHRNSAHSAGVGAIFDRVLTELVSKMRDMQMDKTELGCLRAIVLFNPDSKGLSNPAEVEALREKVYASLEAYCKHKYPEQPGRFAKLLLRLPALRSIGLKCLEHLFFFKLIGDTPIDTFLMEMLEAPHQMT
T1 sequence (Q15596 679-703 partner limits assumed): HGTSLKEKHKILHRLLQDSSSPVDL
Description: (§1) A ligand binding domain of THR-β (amino acids 148-410) (H6-THR-β) and a ligand binding domain of THR-α (amino acids 202-461) (H6-TRα) were cloned into E. coli expression vector pET28a (Novagen, Milwaukee, Wis.) containing N-terminal six His sequences. The resulting recombinant six-His-tagged protein was produced in E. coli BL21(DE3) cells. The cells were grown in Terrific Broth (self-used self-prepared Bacto tryptone (3.3%, w/v), Difico yeast extract (2.0%, w/v) and NaCl (0.5%, w/v) medium), incubated at 25° C. for 24 hours using a shake flask in 0.2 mM IPTG, harvested or dissolved with 5 volumes of buffer A (0.05 M Tris, 0.3 M NaCl, 1% W/V betaine, 0.01 M imidazole, 0.02 M b-mercaptoethanol, pH 8.0). Lysozyme (1.0 mg/ml, Sigma) and CompleteProtease Inhibitor Cocktail (Roche Diagnostics Gmbh) were added to the slurry and the solution was sonicated for one minute and 5 times at 4° C. The suspension was centrifuged at 127,300 RCF for 2 hours in a Ti45 Beckmann rotor and the supernatant was loaded onto an NI NTAAgarose (Quigen 30210) column. After washing with the buffer A, […] or H6-THR-α was eluted with the buffer A containing 0.25 M imidazole.
(§2) 30 microliters of H6-THR-β (50 nM) or H6-THR-α in 50 mM Hepes, pH 7.0, 1 mM DTT, 0.05% NP40 and 0.2 mg/ml BSA (binding buffer) were mixed with an equal volume of EE-RxRα (50 nM) in the binding buffer. […] Aliquot ([…]) was transferred to a 384-well black microtiter plate. HTRF signal was read on a Victor5 reader (PerkinElmer Life and Analytical Sciences). EC50 was calculated.
(§3) Gene clones expressing a ligand-binding domain (amino acids 148-410) of THR-β (H6-THR-β) and a ligand-binding domain (amino acids 202-461) of THR-α (H6-THR-α) were inserted into an Escherichia coli expression vector pET28a, and the expression vector contained one N-terminal 6-His sequence. The expression vector was introduced into an Escherichia coli BL21 (DE3) strain to produce a recombinant protein with a His tag. […] After finishing culturing, a bacterium in culture was collected, and the collected bacterium was resuspended with a lysis solution (0.05 M Tris, 0.3 M NaCl, 1% W/V betaine, 0.01 M imidazole, 0.02 M β-mercaptoethanol, and pH 8.0) with a volume 5 times that of the bacterium, and lysozyme and protease inhibitors were added at the same time, the treated bacteria was subjected to ultrasonic lysis (5 times per minute) in ice bath (4° C.). A lysed suspension was centrifuged at 127300 RCF for 2 hours, a supernatant was loaded on a NI_NTA agarose (Quigen 30210) column, and after washing with a buffer A, an H6-TRβ or H6-TRα protein was eluted with the buffer A containing 0.25 M imidazole.
(§4) A human retinol X receptor (amino acid 225-462) (RxRα) was subjected to engineering modification, so that an N-terminal of the human retinol X receptor had His6 and EE(EFMPME) tags, and then the human retinol X receptor was cloned into a pACYC vector, and produced a His6 EEtagged protein in Escherichia coli. IPTG with a final concentration of 0.1 mM was added into the culture medium for induction, and cultured in a shaking flask at 18° C. for 18 hours. After finishing culturing, a bacterium in culture was collected, and the collected bacterium was re-suspended with a lysis solution (0.05 M Tris, 0.3 M NaCl, 1% W/V betaine, 0.01 M imidazole, 0.02 β-mercaptoethanol, and pH 8.0) with a volume 5 times that of the bacterium, lysozyme and protease inhibitors were added at the same time, and stirred at 4° C. for 30 minutes. Then, a suspension was subjected to an ultrasonic treatment at 4° C. for 30 seconds for 5 times. The suspension was collected, and centrifuged at 12000 RCF for 20 minutes. A supernatant was collected, and the supernatant was filtered with a membrane with a pore size of 0.45 μm, and then added with 0.5% NP-40.

[2] = molecular target: T2, THR-β ligand-binding domain (H6-THR-β) (Homo sapiens, UniProt P10828); experiment: Co-activated peptide recruitment test of THR-β/RXR/GRIP1 (TR_LBD agonist detection, HTRF); assay type: biochemical; conditions: for EC50: Detection of TR_LBD agonist, read-out: TR_beta_EC50; for Measurement of cpd/T3 (maximum ratio) / Maximum activity ratio (A520/A495) / α/β: TR_LBD agonist; for Measurement of cpd/T3 (maximum ratio) / Maximum activity ratio (A520/A495): TR_β; for Measurement of cpd/T3 (maximum ratio): maximum relative to T3; for α/β: ratio TR_α EC50 / TR_β EC50
T2 construct: made in house; host or cells: Escherichia coli BL21 (DE3), vector pET28a
T2 sequence (P10828 217-461 limits assumed): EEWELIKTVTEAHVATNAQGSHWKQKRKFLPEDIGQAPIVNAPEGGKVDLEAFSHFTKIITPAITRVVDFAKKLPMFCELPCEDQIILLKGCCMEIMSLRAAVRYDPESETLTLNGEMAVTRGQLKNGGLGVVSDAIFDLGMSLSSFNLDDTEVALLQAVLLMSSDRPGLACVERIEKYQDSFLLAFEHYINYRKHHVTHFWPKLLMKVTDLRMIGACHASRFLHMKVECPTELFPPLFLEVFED
T2 sequence (P19793 225-462 partner limits assumed): T1 sequence (P19793 225-462 partner limits assumed)
T2 sequence (Q15596 679-703 partner limits assumed): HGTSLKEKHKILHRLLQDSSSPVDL
Description: as §1, §2, §3, §4

[3] = system: TR alpha-UAS-bla HEK 293T Cells; experiment: TR cell-based agonist detection, β-lactamase reporter (LiveBLAzer FRET B/G), TR alpha; conditions: for Emax / EC50: Homo sapiens; for Emax: HEK-293T, 24 h, read-out: Maximum activity ratio; for EC50: Detection of TR_cell-based agonist, HEK 293T-TR alpha, 24 hours, read-out: TR_α_EC50
Description: (§5) A method for testing a THR-α/β activation activity of a compound by an in-vitro cell level was as follows.
(§6) Compounds were transferred to a 384-well plate by an ECHO liquid workstation, and each compound was diluted by 3 times with 10 gradient concentrations, which was in triplicate. 1.5×10^4 DMEM-cultured cells (TR beta-UAS-bla HEK 293T Cells) or 1.0×10^4 TR alpha-UAS-bla HEK 293T Cells were placed in the 384-well plate. HEK 293T-TR beta was incubated in an incubator for 16 hours, and HEK 293T-TR alpha was incubated in an incubator for 24 hours. A LiveBLAzer™-FRET B/G (CCF4-AM) substrate was added into the cell plate to detect expression of β-lactamase in cells, and under excitation of 409 nm, a product produced fluorescence with a wavelength of 447 nm. When the β-lactamase was not expressed, under excitation of 409 nm, fluorescence with a wavelength of 520 nm was directly produced through FRET. Combination between the compound and the protein was determined by detecting a ratio of the two kinds of fluorescence (blue/green, 460 nm/530 nm), thus calculating EC50 of the compound. […] Calculation of a factor Z (greater than 0.5) would be used for monitoring a stability of each experiment.

[4] = system: TR beta-UAS-bla HEK 293T Cells; experiment: TR cell-based agonist detection, β-lactamase reporter (LiveBLAzer FRET B/G), TR beta; conditions: for Emax / EC50: Homo sapiens; for Emax: HEK-293T, 16 h, read-out: Maximum activity ratio (A460/A530); for EC50: Detection of TR_cell-based agonist, HEK 293T-TR beta, 16 hours, read-out: TR_β_EC50
Description: as §5, §6

EC50 [1]	EC50 [2]	Measurement of cpd/T3 (maximum ratio) [2]	Maximum activity ratio (A520/A495) [1]	Measurement of cpd/T3 (maximum ratio) [1]	Maximum activity ratio (A520/A495) [2]	α/β [2]	Structure (SMILES)	Emax ([3]; TR_cell-based agonist, TR_α)	EC50 [3]	Emax ([4]; TR_cell-based agonist, TR_β)	EC50 [4]	Test cpd/T3 (maximum ratio) ([3]; TR_cell-based agonist, TR_α, maximum relative to T3)	Measurement of cpd/T3 (maximum ratio) ([4]; TR_cell-based agonist, TR_β, maximum relative to T3)	α/β ([4]; TR_cell-based agonist, ratio TR_α EC50 / TR_β EC50)
> 5000 nM	154 nM	22.1%					Cn1cnc2cc(Oc3c(Cl)cc(-n4nc(C#N)c(=O)[nH]c4=O)cc3Cl)ccc21 [Compound 2, 2-(3,5-dichloro-4-((1-methyl-1H-benzo[d]imidazol-5-yl)oxy)phenyl)-3,5-dioxo-2,3,4,5-tetrahydro-1,2,4-triazine-6-carbonitrile]	35%	> 20000 nM	14.5%	> 20000 nM			
581 nM	51.7 nM	26.6%	1.59	29.5%	1.46	11.25	Cn1cnc2cc(Oc3c(Br)cc(-n4nc(C#N)c(=O)[nH]c4=O)cc3Br)ccc21 [Compound 4, 2-(3,5-dibromo-4-((1-methyl-1H-benzo[d]imidazol-5-yl)oxy)phenyl)-3,5-dioxo-2,3,4,5-tetrahydro-1,2,4-triazine-6-carbonitrile]	40%	> 20000 nM	16.6%	> 20000 nM			
	> 5000 nM						N#Cc1nn(-c2cc(Cl)c(Oc3ccc4ncn(C5CCNC5)c4c3)c(Cl)c2)c(=O)[nH]c1=O (stereo not drawn) [Compound 6]							
55 nM	5.48 nM	54.0%	2.32	43.0%	2.96	10.04	N#Cc1nn(-c2cc(Cl)c(Oc3ccc4ncn(C5CCCC5)c4c3)c(Cl)c2)c(=O)[nH]c1=O [Compound 8, 2-(3,5-dichloro-4-((1-cyclopen-tyl-1H-benzo[d]imidazol-6-yl)oxy)phenyl)-3,5-dioxo-2,3,4,5-tetrahydro-1,2,4-triazine-6-carbonitrile]	72%	2200 nM	33.9%	596 nM	32.7%	6.2%	3.69
